Test results published in patent US20250250265A1, “BENZOTHIAZOLE-PHENYLSULFONYL-PIPERIDINE ANALOGS AS ACTIVATORS OF NACYLPHOSPHATIDYLETHANOLAMINE HYDROLYZING PHOSPHOLIPASE D” (priority 2022, published 2025).

Key:
[1] = biological target: T1, recombinant human NAPE-PLD (Homo sapiens, UniProt Q6IQ20); assay: Concentration response with recombinant human NAPE-PLD, PED-A1 as substrate; type: biochemical; conditions: for effect on activity of recombinant human NAPE-PLD: graded concentrations (FIG. 18A)
T1 construct: The expression plasmid including the full-length human NAPEPLD gene with a C-terminal hexahistidine tag; hexahistidine (His6) (C)
T1 sequence (Q6IQ20 whole entry): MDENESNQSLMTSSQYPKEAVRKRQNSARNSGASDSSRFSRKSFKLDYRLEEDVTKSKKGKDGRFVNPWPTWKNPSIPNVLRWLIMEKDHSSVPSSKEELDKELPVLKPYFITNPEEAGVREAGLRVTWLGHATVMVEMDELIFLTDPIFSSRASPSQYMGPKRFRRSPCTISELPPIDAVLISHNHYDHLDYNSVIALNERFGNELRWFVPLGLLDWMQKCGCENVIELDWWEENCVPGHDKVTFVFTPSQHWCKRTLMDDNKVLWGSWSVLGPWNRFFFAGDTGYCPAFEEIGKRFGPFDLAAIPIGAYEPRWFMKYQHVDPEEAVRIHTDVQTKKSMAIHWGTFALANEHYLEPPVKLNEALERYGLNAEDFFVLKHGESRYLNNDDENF
Text: FIG. 18A-B show VU534 and VU533 activate human NAPE-PLD. […] Mean±SEM, n=3. Non-linear regression with variable slope (four parameter) was used to calculate EC50 and Emax.
Initial stocks of potential NAPE-PLD modulator compounds were purchased from Life Chemicals and provided by the Vanderbilt HTS screening facility. Additional compounds were synthesized by the Vanderbilt Chemical Synthesis core. LEI-401, [^2H4]PEA and [^2H4]OEA were purchased from Cayman Chemicals. N-palmitoyl-PE, 1,2-dioleoyl-PE and 1,2-dihexanoyl-PE were purchased from Avanti Polar Lipids. PED-A1 was purchased from Invitrogen. Flame-NAPE was synthesized as previously described. See Zarrow et al., J. Lipid Res. 63(1): 100156 (2022). [^2H4]N-palmitoyl-PE was synthesized using [^2H4] palmitic acid (Cambridge Isotope Laboratories) and 1,2-dioleoyl-PE and N-oleoyl-PE was synthesized using 1,2-dihexanoyl-PE and oleoyl chloride (Millipore Sigma). Recombinant mouse NAPE-PLD with a C-terminal hexahistidine tag was expressed in E. coli and purified using cobalt affinity beads as previously described. See Aggarwal et al., J. Biol. Chem. 295(21): 7289-7300 (2020). The expression plasmid including the full-length human NAPEPLD gene with a C-terminal hexahistidine tag inserted in a pET plasmid was purchased from VectorBuilder, and the protein expressed and purified in an identical manner to recombinant mouse NAPE-PLD. The sEH inhibitors TPPU (N-[1-(1-Oxopropyl)-4-piperidinyl]-N′-[4-(trifluoromethoxy)phenyl]urea) and AUDA (12-[[(tricyclo[3.3.1.13,7]dec-1-ylamino)carbonyl]amino]-dodecanoic acid) were purchased from Cayman Chemical and Sigma Chemicals, respectively.
In vitro fluorescence NAPE-PLD activity assays using recombinant NAPE-PLD and either PED-A1 or flame-NAPE as fluorogenic substrate were performed as previously described except with small modifications as noted below. See Aggarwal et al., J. Biol. Chem. 295(21): 7289-7300 (2020); Zarrow et al., J. Lipid Res. 63(1): 100156 (2022).
Concentration response curve (CRC) experiments used the same assay conditions as the HTS assay, except that graded concentrations of each test compound were used, with total amount of vehicle (DMSO) kept constant. CRC experiments with purified recombinant mouse NAPE-PLD were performed on two separate days, with values from each day normalized to vehicle only controls on same plate, and then all normalized values from both days averaged together. CRC experiments with human NAPE-PLD represent value from only a single day, due to limited amounts of this recombinant enzyme.

[2] = biological target: T2, recombinant mouse NAPE-PLD (Mus musculus, UniProt Q8BH82); assay: LC/MS NAPE-PLD assay with N-oleoyl-phosphatidylethanolamine (NOPE) as substrate; type: biochemical; conditions: NOPE 90 min (FIG. 19A)
T2 construct: hexahistidine (His6) (C); made in house; host or cells: E. coli
T2 sequence (Q8BH82 1-396): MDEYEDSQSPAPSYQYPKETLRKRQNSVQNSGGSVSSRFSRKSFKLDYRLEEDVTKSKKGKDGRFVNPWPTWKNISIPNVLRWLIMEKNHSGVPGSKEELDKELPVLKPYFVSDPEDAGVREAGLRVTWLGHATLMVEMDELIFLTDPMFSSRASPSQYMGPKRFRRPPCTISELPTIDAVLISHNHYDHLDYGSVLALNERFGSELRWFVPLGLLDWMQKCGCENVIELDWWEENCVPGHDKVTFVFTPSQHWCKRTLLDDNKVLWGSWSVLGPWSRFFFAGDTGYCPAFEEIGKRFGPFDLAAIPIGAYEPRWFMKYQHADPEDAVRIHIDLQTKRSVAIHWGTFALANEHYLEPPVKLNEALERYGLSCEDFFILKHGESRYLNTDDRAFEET
Experimental: For LC/MS assays, N-oleoyl-PE was added as substrate after […] pre-incubation with compound VU534, VU533, VU233 or vehicle. 90 min after N-oleoyl-PE was added, the reaction was quenched by adding 3 volumes of ice-cold methanol containing [^2H4]OEA and [^2H4]N-palmitoyl-PE and then 6 volumes of ice-cold chloroform.33 The lower phase was dried under nitrogen gas and dissolved in 100 μL mobile phase A. High performance liquid chromatography was performed using a 2.1 mm C18 guard column (Phenomenex AJ0-8782), and a rapid gradient ramp. Mobile phase A was 5:1:4 (v/v/v) isopropanol: methanol: water, with 0.2% v/v formic acid, 0.66 mM ammonium formate and 3 μM phosphoric acid included as additives. Mobile phase B was 0.2% (v/v) formic acid in isopropanol. Initial column conditions were 5% mobile phase B, followed by gradient ramp to 95% B over 0.5 min, held at 95% B for 2 min, the returned to initial conditions (5% B) over 1 min. Flow rate throughout was 100 μL/min. Injection volume was 2 μL. The sample injector needle was washed before each injection using a strong wash of methanol, and a weak wash of 1:1:1:1 (v/v/v/V) isopropanol: methanol: acetonitrile: water, with 0.2% formic acid, 0.3 mM ammonium formate, and 0.37 mM phosphoric acid included as additives. Multiple reaction monitoring for the following ions were monitored: OEA [M+H]^+: m/z 326.3→m/z 62.1; [^2H4]OEA [M+H]^+: m/z 330.3→m/z 66.1; N-oleoyl-PE [M+NH4]^+: m/z 693.5→m/z 308.3 (quantifier), m/z 693.5→m/z 271.2 (qualifier); [^2H4]N-palmitoyl-PE [M+NH4]^+: m/z 1003.8→m/z 286.3 (quantifier), m/z 1003.8→m/z 603.5 (qualifier). […]
To confirm the results of the fluorescence-based assays, an orthogonal biochemical Nape-pld assay based on LC/MS was employed. Recombinant mouse NAPE-PLD was pre-treated with VU534, VU533, VU233 or vehicle for 30 min, then N-oleoyl-phosphatidylethanolamine (NOPE) was added for 90 min, and the resulting levels of OEA and NOPE was measured by LC/MS. […]

Row | EC50, recombinant human NAPE-PLD ([1]; FIG. 18A, PED-A1) | SMILES | effect on activity of recombinant human NAPE-PLD [1] | effect on OEA/NOPE ratio [2] | Emax, recombinant human NAPE-PLD ([1]; FIG. 18A, PED-A1) [fold]
1 | not calculable | O=C(Nc1nc2ccccc2s1)C1CCN(S(=O)(=O)c2ccc(F)c(Cl)c2)CC1 [VU233] | no significant effect | no significant effect | –
2 | – | Cc1ccc(C)c2sc(NC(=O)C3CCN(S(=O)(=O)c4ccc(F)cc4)CC3)nc12 [VU533] | concentration-dependent increases | significantly increased the OEA/NOPE ratio | 1.9
3 | – | Cc1cc(C)c2sc(NC(=O)C3CCN(S(=O)(=O)c4ccc(F)cc4)CC3)nc2c1 [VU534, N-(5,7-Dimethylbenzo[d]thiazol-2-yl)-1-((4-fluorophenyl)sulfonyl)piperidine-4-carboxamide] | concentration-dependent increases | significantly increased the OEA/NOPE ratio | 1.8
